According to US8461083B2, “Herbicidal compounds” (Syngenta Limited, priority 2008, dated 2013):

Columns and labels:
Type in all cases: in vivo
[1] = tested on: Alopecurus myosuroides (ALOMY); test: Pre-emergence herbicidal glasshouse test; conditions: pre-emergence (sprayed after one day cultivation), evaluated after 13 days, 100=total damage to plant, 0=no damage to plant; for pest or weed control at 1000 g/ha: Alopecurus myosuroides, 312 h, read-out: PRE Application ALOMY, damage to plant; for PRE Application ALOMY, damage to plant: 1000 g/ha
Experimental: (§1) Seeds of a variety of test species were sown in standard soil in pots (Alopecurus myosuroides (ALOMY), Setaria faberi (SETFA), Echinochloa crus-galli (ECHCG), Solanum nigrum (SOLNI) and Amaranthus retoflexus (AMARE)). After cultivation for one day (pre-emergence) or after 8 days cultivation (post-emergence) under controlled conditions in a glasshouse (at 24/16° C., day/night; 14 hours light; 65% humidity), the plants were sprayed with an aqueous spray solution derived from the formulation of the technical active ingredient in acetone/water (50:50) solution containing 0.5% Tween 20 (polyoxyethelyene sorbitan monolaurate, CAS RN 9005-64-5). Compounds were applied at 1000 g/ha. The test plants were then grown in a glasshouse under controlled conditions in a glasshouse (at 24/16° C., day/night; 14 hours light; 65% humidity) and watered twice daily. After 13 days for pre and post-emergence, the test was evaluated (100=total damage to plant; 0=no damage to plant).

Solanum nigrum (SOLNI) [2] = test: Pre-emergence herbicidal glasshouse test; conditions: pre-emergence (sprayed after one day cultivation), evaluated after 13 days, 100=total damage to plant, 0=no damage to plant; for pest or weed control at 1000 g/ha: Solanum nigrum, 312 h, read-out: PRE Application SOLNI, damage to plant; for PRE Application SOLNI, damage to plant: 1000 g/ha
Experimental: as §1

Setaria faberi (SETFA) [3] = test: Pre-emergence herbicidal glasshouse test; conditions: pre-emergence (sprayed after one day cultivation), evaluated after 13 days, 100=total damage to plant, 0=no damage to plant; for pest or weed control at 1000 g/ha: Setaria faberi, 312 h, read-out: PRE Application SETFA, damage to plant; for PRE Application SETFA, damage to plant: 1000 g/ha
Experimental: as §1

[4] = tested on: Amaranthus retoflexus (AMARE); test: Pre-emergence herbicidal glasshouse test; conditions: pre-emergence (sprayed after one day cultivation), evaluated after 13 days, 100=total damage to plant, 0=no damage to plant; for pest or weed control at 1000 g/ha: Amaranthus retroflexus, 312 h, read-out: PRE Application AMARE, damage to plant; for PRE Application AMARE, damage to plant: 1000 g/ha
Experimental: as §1

[5] = tested on: Echinochloa crus-galli (ECHCG); test: Pre-emergence herbicidal glasshouse test; conditions: pre-emergence (sprayed after one day cultivation), evaluated after 13 days, 100=total damage to plant, 0=no damage to plant; for pest or weed control at 1000 g/ha: Echinochloa crus-galli, 312 h, read-out: PRE Application ECHCG, damage to plant; for PRE Application ECHCG, damage to plant: 1000 g/ha
Experimental: as §1

[6] = tested on: Alopecurus myosuroides (ALOMY); test: Post-emergence herbicidal glasshouse test; conditions: post-emergence (sprayed after 8 days cultivation), evaluated after 13 days, 100=total damage to plant, 0=no damage to plant; for pest or weed control at 1000 g/ha: Alopecurus myosuroides, 312 h, read-out: POST Application ALOMY, damage to plant; for POST Application ALOMY, damage to plant: 1000 g/ha
Experimental: as §1

Solanum nigrum (SOLNI) [7] = test: Post-emergence herbicidal glasshouse test; conditions: post-emergence (sprayed after 8 days cultivation), evaluated after 13 days, 100=total damage to plant, 0=no damage to plant; for pest or weed control at 1000 g/ha: Solanum nigrum, 312 h, read-out: POST Application SOLNI, damage to plant; for POST Application SOLNI, damage to plant: 1000 g/ha
Experimental: as §1

Setaria faberi (SETFA) [8] = test: Post-emergence herbicidal glasshouse test; conditions: post-emergence (sprayed after 8 days cultivation), evaluated after 13 days, 100=total damage to plant, 0=no damage to plant; for pest or weed control at 1000 g/ha: Setaria faberi, 312 h, read-out: POST Application SETFA, damage to plant; for POST Application SETFA, damage to plant: 1000 g/ha
Experimental: as §1

[9] = tested on: Amaranthus retoflexus (AMARE); test: Post-emergence herbicidal glasshouse test; conditions: post-emergence (sprayed after 8 days cultivation), evaluated after 13 days, 100=total damage to plant, 0=no damage to plant; for pest or weed control at 1000 g/ha: Amaranthus retroflexus, 312 h, read-out: POST Application AMARE, damage to plant; for POST Application AMARE, damage to plant: 1000 g/ha
Experimental: as §1

[10] = tested on: Echinochloa crus-galli (ECHCG); test: Post-emergence herbicidal glasshouse test; conditions: post-emergence (sprayed after 8 days cultivation), evaluated after 13 days, 100=total damage to plant, 0=no damage to plant; for pest or weed control at 1000 g/ha: Echinochloa crus-galli, 312 h, read-out: POST Application ECHCG, damage to plant; for POST Application ECHCG, damage to plant: 1000 g/ha
Experimental: as §1

Row | SMILES | pest or weed control at 1000 g/ha [1] [%] | pest or weed control at 1000 g/ha (Solanum nigrum (SOLNI) [2]) [%] | pest or weed control at 1000 g/ha (Setaria faberi (SETFA) [3]) [%] | pest or weed control at 1000 g/ha [4] [%] | pest or weed control at 1000 g/ha [5] [%] | pest or weed control at 1000 g/ha [6] [%] | pest or weed control at 1000 g/ha (Solanum nigrum (SOLNI) [7]) [%] | pest or weed control at 1000 g/ha (Setaria faberi (SETFA) [8]) [%] | pest or weed control at 1000 g/ha [9] [%] | pest or weed control at 1000 g/ha [10] [%] | PRE Application ALOMY, damage to plant [1] | PRE Application SOLNI, damage to plant (Solanum nigrum (SOLNI) [2]) | PRE Application SETFA, damage to plant (Setaria faberi (SETFA) [3]) | PRE Application AMARE, damage to plant [4] | PRE Application ECHCG, damage to plant [5] | POST Application ALOMY, damage to plant [6] | POST Application SOLNI, damage to plant (Solanum nigrum (SOLNI) [7]) | POST Application SETFA, damage to plant (Setaria faberi (SETFA) [8]) | POST Application AMARE, damage to plant [9] | POST Application ECHCG, damage to plant [10]
1 | Cc1nc2nc(C(F)(F)F)c(C(=O)C3=C(OC(=O)C(C)C)CCCC3=O)cc2cc1F [Compound 4.21, Isobutyric acid 2-(6-fluoro-7-methyl-2-trifluoromethyl-[1,8]-naphthyridine-3-carbonyl)-3-oxo-cyclohex-1-enyl ester] | 80 | 100 | 100 | 100 | 100 | 80 | 80 | 80 | 90 | 80 | – | – | – | – | – | – | – | – | – | –
2 | Cc1nc2nc(C(F)(F)F)c(C(=O)C3C(=O)C(C)(C)OC(C)(C)C3=O)cc2cc1F [Compound 5.2] | 90 | 100 | 100 | 100 | 100 | 70 | 70 | 80 | 90 | 80 | – | – | – | – | – | – | – | – | – | –
3 | CNc1nc2nc(C(F)(F)F)c(C(=O)C3C(=O)CCCC3=O)cc2cc1F [Compound 1.98, 2-[6-fluoro-7-methylamino-2-trifluoromethyl-[1,8]-naphthyridine-3-carbony]-cyclohexane-1,3-dione] | 20 | 100 | 100 | 100 | 100 | 70 | 40 | 80 | 90 | 80 | – | – | – | – | – | – | – | – | – | –
4 | COCc1nc2nc(C(F)(F)F)ccc2cc1C(=O)C1C(=O)CCCC1=O [Compound 1.100, 2-[2-(methoxymethyl)-7-trifluoromethyl-[1,8]-naphthyridine-3-carbony]-cyclohexane-1,3-dione] | – | – | – | – | – | – | – | – | – | – | 20 | 100 | 100 | 100 | 100 | 40 | 80 | 80 | 90 | 80
5 | O=C1CCCC(=O)C1C(=O)c1cc2ccc(CF)nc2nc1C(F)(F)F [Compound 1.11] | 60 | 100 | 100 | 80 | 100 | 70 | 100 | 90 | 100 | 90 | – | – | – | – | – | – | – | – | – | –
6 | CCOc1ccc2cc(C(=O)C3=C(OC(=O)C(C)C)CCCC3=O)c(C(F)(F)F)nc2n1 [Compound 4.19, isobutyric acid 2-(7-ethoxy-2-trifluoromethyl-[1,8]-naphthyridine-3-carbonyl)-3-oxo-cyclohex-1-enyl ester] | 70 | 100 | 100 | 100 | 100 | 80 | 90 | 90 | 70 | 80 | – | – | – | – | – | – | – | – | – | –
7 | Cc1nc2nc(C(F)(F)Cl)c(C(=O)C3C(=O)CCCC3=O)cc2cc1F [Compound 1.87, 2-(2-chlorodifluoromethyl-6-fluoro-7-methyl-[1,8]-naphthyridine-3-carbonyl)-cyclohexane-1,3-dione] | – | – | – | – | – | – | – | – | – | – | 60 | 100 | 100 | 100 | 100 | 70 | 90 | 80 | 80 | 90
8 | O=C1CCCC(=O)C1C(=O)c1cc2cc(F)c(-c3ccsc3)nc2nc1C(F)(F)F [Compound 1.71] | – | – | – | – | – | – | – | – | – | – | 10 | 70 | 70 | 0 | 90 | 30 | 70 | 80 | 100 | 80
9 | CC(C)n1c(=O)ccc2cc(C(=O)C3C(=O)CCCC3=O)c(C(F)(F)F)nc21 [Compound 2.10, 2-{8-isopropyl-7-oxo-7,8-dihydro-2-trifluoromethyl-[1,8]-naphthyridine-3-carbony}-cyclohexane-1,3-dione] | 50 | 90 | 80 | 80 | 90 | 80 | 100 | 90 | 100 | 90 | – | – | – | – | – | – | – | – | – | –
10 | O=C(c1cc2cc(F)c(O)nc2nc1C(F)(F)F)C1C(=O)C2CCC(C2)C1=O (stereo not drawn) [Compound 3.1] | 60 | 100 | 90 | 100 | 90 | 60 | 80 | 80 | 80 | 70 | – | – | – | – | – | – | – | – | – | –
11 | O=C1CCCC(=O)C1C(=O)c1cc2ccc(=O)n(CCc3ccccc3)c2nc1C(F)(F)F [Compound 2.15, 2-{8-(2-phenylethyl)-7-oxo-7,8-dihydro-2-trifluoromethyl-[1,8]-naphthyridine-3-carbonyl}-cyclohexane-1,3-dione] | 10 | 90 | 40 | 30 | 90 | 40 | 90 | 90 | 70 | 80 | – | – | – | – | – | – | – | – | – | –
12 | O=C1CCCC(=O)C1C(=O)c1cc2ccc(=O)n(CCF)c2nc1C(F)(F)F [Compound 2.11, 2-{8-(2-fluoroethyl)-7-oxo-7,8-dihydro-2-trifluoromethyl-[1,8]-naphthyridine-3-carbony}-cyclohexane-1,3-dione] | – | – | – | – | – | – | – | – | – | – | 40 | 100 | 90 | 60 | 100 | 90 | 100 | 90 | 100 | 90
